From publication PMC2651670 (Biochemistry, 2009)

Assays:
subcomplex Iλ = subcomplex Iλ (Bos taurus, UniProt P25708); assay: NADH:Q1 oxidoreduction; type: biochemical; conditions: 100 μM NADH, 0.4 mg/mL asolectin, with or without 2.3 μM rotenone, pH 7.55, 32 °C; flavin site
[1] = molecular target: complex I (NADH:ubiquinone oxidoreductase), hydrophobic (physiological) Q-site (Bos taurus, UniProt P03887+P17694+P42026); assay: NADH:DQ oxidoreduction, NADH absorbance; type: biochemical
Chain of complex I (NADH:ubiquinone oxidoreductase), hydrophobic (physiological) Q-site (P03887 whole entry): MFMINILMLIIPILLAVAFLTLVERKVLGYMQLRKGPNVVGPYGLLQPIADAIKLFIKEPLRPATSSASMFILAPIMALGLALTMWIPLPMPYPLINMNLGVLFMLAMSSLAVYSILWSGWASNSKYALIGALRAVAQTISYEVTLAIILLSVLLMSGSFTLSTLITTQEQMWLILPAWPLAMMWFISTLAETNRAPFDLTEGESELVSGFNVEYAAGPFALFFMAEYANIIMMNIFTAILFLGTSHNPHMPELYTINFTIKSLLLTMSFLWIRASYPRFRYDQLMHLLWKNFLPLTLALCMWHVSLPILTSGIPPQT
Chain of complex I (NADH:ubiquinone oxidoreductase), hydrophobic (physiological) Q-site (P17694 34-463): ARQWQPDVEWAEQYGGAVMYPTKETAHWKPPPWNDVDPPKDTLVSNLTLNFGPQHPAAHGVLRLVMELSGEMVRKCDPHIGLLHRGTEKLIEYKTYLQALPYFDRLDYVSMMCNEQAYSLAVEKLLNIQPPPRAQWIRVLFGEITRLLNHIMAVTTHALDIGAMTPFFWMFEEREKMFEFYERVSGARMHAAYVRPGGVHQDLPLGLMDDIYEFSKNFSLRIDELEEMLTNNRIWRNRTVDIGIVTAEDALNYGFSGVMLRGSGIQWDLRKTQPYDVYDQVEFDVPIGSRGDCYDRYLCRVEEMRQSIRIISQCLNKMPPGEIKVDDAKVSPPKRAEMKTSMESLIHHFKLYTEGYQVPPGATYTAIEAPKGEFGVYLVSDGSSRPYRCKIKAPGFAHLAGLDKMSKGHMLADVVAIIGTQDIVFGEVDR
Chain of complex I (NADH:ubiquinone oxidoreductase), hydrophobic (physiological) Q-site (P42026 38-216): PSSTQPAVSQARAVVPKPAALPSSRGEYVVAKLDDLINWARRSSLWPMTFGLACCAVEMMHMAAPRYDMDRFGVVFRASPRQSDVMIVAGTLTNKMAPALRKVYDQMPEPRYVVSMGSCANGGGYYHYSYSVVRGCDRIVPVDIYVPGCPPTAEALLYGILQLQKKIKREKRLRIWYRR

Chain of subcomplex Iλ (P04394 33-249): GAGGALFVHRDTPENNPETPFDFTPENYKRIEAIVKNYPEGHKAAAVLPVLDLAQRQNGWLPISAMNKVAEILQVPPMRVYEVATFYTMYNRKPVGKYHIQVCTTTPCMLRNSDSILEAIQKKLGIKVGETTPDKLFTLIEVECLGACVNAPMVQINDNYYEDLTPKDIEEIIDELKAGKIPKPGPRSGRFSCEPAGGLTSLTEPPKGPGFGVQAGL
Chain of subcomplex Iλ (P25708 21-464): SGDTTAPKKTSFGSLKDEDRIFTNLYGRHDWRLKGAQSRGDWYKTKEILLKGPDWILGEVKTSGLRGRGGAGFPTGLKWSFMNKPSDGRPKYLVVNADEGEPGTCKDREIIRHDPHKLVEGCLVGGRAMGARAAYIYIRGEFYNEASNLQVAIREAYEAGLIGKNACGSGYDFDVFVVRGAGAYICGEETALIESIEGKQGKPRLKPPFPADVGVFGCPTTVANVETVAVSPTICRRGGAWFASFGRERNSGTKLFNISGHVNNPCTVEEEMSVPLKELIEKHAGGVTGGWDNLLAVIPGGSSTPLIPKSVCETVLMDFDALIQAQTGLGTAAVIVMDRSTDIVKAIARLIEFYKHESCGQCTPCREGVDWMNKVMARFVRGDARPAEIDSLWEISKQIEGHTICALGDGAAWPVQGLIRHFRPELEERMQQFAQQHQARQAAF
Chain of subcomplex Iλ (P15690 24-727, further chain): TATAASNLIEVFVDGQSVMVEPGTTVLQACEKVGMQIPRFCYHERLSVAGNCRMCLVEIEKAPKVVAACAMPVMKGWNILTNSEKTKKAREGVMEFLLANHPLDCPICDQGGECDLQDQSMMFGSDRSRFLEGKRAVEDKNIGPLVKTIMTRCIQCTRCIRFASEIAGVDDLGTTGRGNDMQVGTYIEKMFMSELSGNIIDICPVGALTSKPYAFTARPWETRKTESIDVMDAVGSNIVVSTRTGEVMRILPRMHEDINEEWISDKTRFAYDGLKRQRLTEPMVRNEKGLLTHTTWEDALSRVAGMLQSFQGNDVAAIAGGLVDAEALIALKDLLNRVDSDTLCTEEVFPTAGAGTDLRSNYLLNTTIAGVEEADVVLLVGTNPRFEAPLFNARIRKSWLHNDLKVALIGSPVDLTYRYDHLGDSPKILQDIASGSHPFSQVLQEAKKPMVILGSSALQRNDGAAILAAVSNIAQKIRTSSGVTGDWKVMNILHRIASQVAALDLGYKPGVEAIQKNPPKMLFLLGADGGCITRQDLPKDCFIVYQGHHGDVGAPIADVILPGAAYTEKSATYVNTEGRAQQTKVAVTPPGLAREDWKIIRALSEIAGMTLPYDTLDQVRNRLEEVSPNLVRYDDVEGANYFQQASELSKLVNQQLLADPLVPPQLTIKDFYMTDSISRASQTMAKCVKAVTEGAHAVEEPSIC

## COC1=C(OC)C(=O)C(CC=C(C)C)=C(C)C1=O [Q1]
Subcomplex Iλ
  NADH:Q1 oxidoreduction: Q1 reduction by subcomplex Iλ is independent of the presence of rotenone

## C=C(C)[C@H]1Cc2c(ccc3c2O[C@@H]2COc4cc(OC)c(OC)cc4[C@@H]2C3=O)O1 [rotenone]
[1]; read-out: % inhibition at 2.3 μM
  inhibition at 2.3 µM: ~95%

## C/C=C(\C)[C@H](O)[C@H](C)/C=C(C)/C=C/C/C(C)=C/Cc1nc(OC)c(OC)c(O)c1C [piericidin A]
[1]; read-out: % inhibition at 1 μM
  inhibition at 1 µM: ~95%
